Patent US11420969B2 (Exonate Limited, priority 2017, dated 2022)

What was measured:
[1] = target: T1, CYP2C9 (Homo sapiens, UniProt P11712); experiment: CYP inhibition assay, human liver microsomes, substrate diclofenac; type: in vitro ADME; conditions: human liver microsomes, 10 min incubation, LC-MS/MS; read-out: CYP Inhibition Activity (IC50/nM) CYP2C9
T1 construct: from tissue; host or cells: human liver microsomes
Method: (§1) 2 μL of test compound/Positive Inhibitor working solutions is then added to the reaction plate (2 μL/well). For control, 2 μL of Acetonitrile (ACN) containing DMSO (without inhibitor) is added to the reaction plate. 20 μL of substrate pool is added to all the wells of the reaction plate. The samples are mixed in a vortexer and pre-incubated at 37° C. for 20 min. The NADPH solution is pre-warmed at 37° C. for 5 min. 20 μL of pre-warmed NADPH solution is added to the reaction plate and then incubated at 37° C. for 10 min. The reaction is terminated by adding cold ACN (200 μL/well) to the reaction mixture and centrifuging at 4,000 rpm for 20 minutes. After centrifugation, supernatant is separated and analyzed by LC-MS/MS.
(§2) % inhibition and IC50 are calculated using Graphpad Prism software.

[2] = target: SRPK1 (Homo sapiens, UniProt Q96SB4); experiment: In vitro SRPK1 assay (Kinase-Glo); type: biochemical
Chain of SRPK1 (Q96SB4 whole entry, species assumed): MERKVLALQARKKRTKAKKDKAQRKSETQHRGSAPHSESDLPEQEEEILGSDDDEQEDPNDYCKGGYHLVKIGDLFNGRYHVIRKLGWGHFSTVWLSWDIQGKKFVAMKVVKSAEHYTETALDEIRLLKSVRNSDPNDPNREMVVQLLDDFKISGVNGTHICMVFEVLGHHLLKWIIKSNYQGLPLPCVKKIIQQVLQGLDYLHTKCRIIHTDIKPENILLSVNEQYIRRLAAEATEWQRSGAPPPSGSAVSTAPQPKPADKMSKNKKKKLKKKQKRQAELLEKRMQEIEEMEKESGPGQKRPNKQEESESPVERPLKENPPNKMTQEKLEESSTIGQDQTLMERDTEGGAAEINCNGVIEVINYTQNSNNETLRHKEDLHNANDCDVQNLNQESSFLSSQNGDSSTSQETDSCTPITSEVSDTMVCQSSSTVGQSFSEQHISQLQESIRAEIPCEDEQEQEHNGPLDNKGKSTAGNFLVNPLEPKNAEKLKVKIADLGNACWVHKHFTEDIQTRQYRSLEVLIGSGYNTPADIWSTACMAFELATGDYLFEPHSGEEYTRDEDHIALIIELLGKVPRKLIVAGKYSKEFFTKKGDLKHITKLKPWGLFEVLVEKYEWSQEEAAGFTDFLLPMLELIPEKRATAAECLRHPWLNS

[3] = target: T2, CYP2C19 (Homo sapiens, UniProt P33261); experiment: CYP inhibition assay, human liver microsomes, substrate S-mephenytoin; type: in vitro ADME; conditions: human liver microsomes, 10 min incubation, LC-MS/MS; read-out: CYP Inhibition Activity (IC50/nM) CYP2C19
T2 construct: from tissue; host or cells: human liver microsomes
T2 sequence (P33261 whole entry): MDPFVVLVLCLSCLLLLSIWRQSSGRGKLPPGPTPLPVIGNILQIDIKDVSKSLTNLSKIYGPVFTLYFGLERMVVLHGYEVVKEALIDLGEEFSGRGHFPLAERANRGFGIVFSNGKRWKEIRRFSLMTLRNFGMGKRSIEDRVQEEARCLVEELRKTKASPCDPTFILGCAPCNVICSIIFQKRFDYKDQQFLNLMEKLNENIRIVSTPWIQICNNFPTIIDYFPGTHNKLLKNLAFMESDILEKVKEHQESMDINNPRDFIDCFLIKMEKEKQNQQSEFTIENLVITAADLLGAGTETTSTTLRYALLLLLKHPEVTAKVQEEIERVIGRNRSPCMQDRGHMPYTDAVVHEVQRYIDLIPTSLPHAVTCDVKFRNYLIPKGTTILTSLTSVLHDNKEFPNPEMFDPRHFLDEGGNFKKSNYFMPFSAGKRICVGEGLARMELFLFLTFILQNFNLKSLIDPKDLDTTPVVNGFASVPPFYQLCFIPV
Method: as §1, §2

[4] = target: T3, CYP1A2 (Homo sapiens, UniProt P05177); experiment: CYP inhibition assay, human liver microsomes, substrate tacrine; type: in vitro ADME; conditions: human liver microsomes, 10 min incubation, LC-MS/MS; read-out: CYP Inhibition Activity (IC50/nM) CYP1A2
T3 construct: from tissue; host or cells: human liver microsomes
T3 sequence (P05177 1-516): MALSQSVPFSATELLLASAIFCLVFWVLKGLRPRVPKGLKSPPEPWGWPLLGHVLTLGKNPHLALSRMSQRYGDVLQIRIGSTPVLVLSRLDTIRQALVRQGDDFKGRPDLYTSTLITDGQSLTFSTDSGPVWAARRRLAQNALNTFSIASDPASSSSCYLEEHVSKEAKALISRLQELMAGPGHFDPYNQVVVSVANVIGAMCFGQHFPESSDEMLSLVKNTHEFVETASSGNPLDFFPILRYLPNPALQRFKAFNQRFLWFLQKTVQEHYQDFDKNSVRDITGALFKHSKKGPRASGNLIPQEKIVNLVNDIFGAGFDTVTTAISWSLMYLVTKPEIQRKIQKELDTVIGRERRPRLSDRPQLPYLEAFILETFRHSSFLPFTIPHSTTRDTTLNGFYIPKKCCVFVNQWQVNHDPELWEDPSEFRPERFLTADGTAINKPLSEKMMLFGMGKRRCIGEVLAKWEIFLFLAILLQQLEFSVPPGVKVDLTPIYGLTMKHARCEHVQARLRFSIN
Method: as §1, §2

[5] = target: T4, CYP2D6 (Homo sapiens, UniProt P10635); experiment: biochemical; type: in vitro ADME
T4 construct: from tissue; host or cells: human liver microsomes
T4 sequence (P10635 whole entry): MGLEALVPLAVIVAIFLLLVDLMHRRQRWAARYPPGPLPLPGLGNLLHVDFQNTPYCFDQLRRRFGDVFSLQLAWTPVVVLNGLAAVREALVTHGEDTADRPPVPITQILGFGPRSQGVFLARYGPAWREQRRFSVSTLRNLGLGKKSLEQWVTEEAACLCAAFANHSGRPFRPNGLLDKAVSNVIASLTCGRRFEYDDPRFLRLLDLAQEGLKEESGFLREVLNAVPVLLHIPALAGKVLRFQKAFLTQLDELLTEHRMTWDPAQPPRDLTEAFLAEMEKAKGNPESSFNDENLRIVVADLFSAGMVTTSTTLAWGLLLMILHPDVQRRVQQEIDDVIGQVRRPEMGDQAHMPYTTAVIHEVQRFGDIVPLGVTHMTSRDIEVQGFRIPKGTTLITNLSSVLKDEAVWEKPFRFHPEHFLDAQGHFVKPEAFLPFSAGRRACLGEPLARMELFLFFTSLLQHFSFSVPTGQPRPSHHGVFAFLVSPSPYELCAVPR
Method: 158 μL of Human Liver Microsomes working stock solution is added to a reaction plate (0.253 mg/mL, 158 μL/well). 2 μL of test compound/Positive Inhibitor working solutions is then added to the reaction plate (2 μL/well). For control, 2 μL of Acetonitrile (ACN) containing DMSO (without inhibitor) is added to the reaction plate. 20 μL of substrate pool is added to all the wells of the reaction plate. The samples are mixed in a vortexer and pre-incubated at 37° C. for 20 min. The NADPH solution is pre-warmed at 37° C. for 5 min. 20 μL of pre-warmed NADPH solution is added to the reaction plate and then incubated at 37° C. for 10 min. The reaction is terminated by adding cold ACN (200 μL/well) to the reaction mixture and centrifuging at 4,000 rpm for 20 minutes. After centrifugation, supernatant is separated and analyzed by LC-MS/MS.
as §2

[6] = target: T5, CYP3A4 (Homo sapiens, UniProt P08684); experiment: CYP inhibition assay, human liver microsomes, substrate midazolam; type: in vitro ADME; conditions: human liver microsomes, 10 min incubation, LC-MS/MS; read-out: CYP Inhibition Activity (IC50/nM) CYP3A4
T5 construct: from tissue; host or cells: human liver microsomes
T5 sequence (P08684 whole entry): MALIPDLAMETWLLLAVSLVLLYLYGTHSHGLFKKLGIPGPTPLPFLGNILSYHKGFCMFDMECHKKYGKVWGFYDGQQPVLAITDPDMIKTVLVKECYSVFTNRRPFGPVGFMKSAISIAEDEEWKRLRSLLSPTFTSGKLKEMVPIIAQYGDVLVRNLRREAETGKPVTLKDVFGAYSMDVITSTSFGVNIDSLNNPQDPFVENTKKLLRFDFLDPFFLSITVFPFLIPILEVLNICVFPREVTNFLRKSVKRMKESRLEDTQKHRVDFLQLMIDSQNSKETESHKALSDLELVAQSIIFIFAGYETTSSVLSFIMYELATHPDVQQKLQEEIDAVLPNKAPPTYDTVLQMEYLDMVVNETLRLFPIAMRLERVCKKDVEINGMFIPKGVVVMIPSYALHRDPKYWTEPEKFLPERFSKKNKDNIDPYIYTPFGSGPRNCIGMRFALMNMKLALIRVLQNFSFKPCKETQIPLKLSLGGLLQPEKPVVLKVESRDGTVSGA
Method: as §1, §2

T1 sequence (P11712 whole entry): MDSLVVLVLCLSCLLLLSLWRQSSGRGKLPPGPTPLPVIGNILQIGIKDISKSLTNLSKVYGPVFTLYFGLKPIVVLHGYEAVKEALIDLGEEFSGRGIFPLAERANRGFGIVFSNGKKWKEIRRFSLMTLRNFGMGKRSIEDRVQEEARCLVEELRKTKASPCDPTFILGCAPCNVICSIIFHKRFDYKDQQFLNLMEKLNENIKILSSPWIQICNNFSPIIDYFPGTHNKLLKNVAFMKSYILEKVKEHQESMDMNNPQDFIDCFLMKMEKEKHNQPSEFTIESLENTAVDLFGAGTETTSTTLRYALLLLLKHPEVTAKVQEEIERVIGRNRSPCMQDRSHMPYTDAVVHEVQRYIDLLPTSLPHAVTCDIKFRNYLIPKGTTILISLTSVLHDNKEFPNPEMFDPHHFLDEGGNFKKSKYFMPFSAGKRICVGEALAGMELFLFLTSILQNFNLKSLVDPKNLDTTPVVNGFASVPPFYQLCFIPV

Row | SMILES | IC50 [1] | IC50 [2] | IC50 [3] | IC50 [4] | IC50 [5] | IC50 [6]
1 | CC1(C)CCN(c2ccc(C(F)(F)F)cc2NC(=O)c2ccc(-c3ccncc3)o2)CC1 [Example 28, N-(2-(4,4-dimethylpiperidin-1-yl)-5-(trifluoromethyl)phenyl)-5-(pyridin-4-yl)furan-2-carboxamide] | > 30000 nM | 15 nM | > 30000 nM | > 30000 nM | > 30 µM | > 30000 nM
2 | CC1(C)CCN(c2ccc(Cl)cc2NC(=O)c2ccc(C3CCOCC3)o2)CC1 [Example 65, N-(5-chloro-2-(4,4-dimethylpiperidin-1-yl)phenyl)-5-(tetrahydro-2H-pyran-4-yl)furan-2-carboxamide] | 14000 nM | 9.8 nM | > 30000 nM | > 30000 nM | > 30 µM | > 30000 nM
3 | Cc1ccc(N2CCC(C)(O)CC2)c(NC(=O)c2ccc(-c3ccncc3)o2)c1 [Example 8, N-(2-(4-hydroxy-4-methylpiperidin-1-yl)-5-methylphenyl)-5-(pyridin-4-yl)furan-2-carboxamide] | 1100 nM | 14.4 nM | 2900 nM | 11100 nM | 6.1 µM | 1700 nM
4 | Cc1ccc(N2CCC(C)(O)CC2)c(NC(=O)c2ccc(C3CCOCC3)o2)c1 [Example 13, N-(2-(4-hydroxy-4-methylpiperidin-1-yl)-5-methylphenyl)-5-(tetrahydro-2H-pyran-4-yl)furan-2-carboxamide] | 7600 nM | 17.4 nM | 15100 nM | > 30000 nM | > 30 µM | 23200 nM
5 | CC1(O)CCN(c2ccc(C3CC3)cc2NC(=O)c2ccc(-c3ccncc3)o2)CC1 [Example 6, N-(5-cyclopropyl-2-(4-hydroxy-4-methylpiperidin-1-yl)phenyl)-5-(pyridin-4-yl)furan-2-carboxamide] | 790 nM | 1.7 nM | 1010 nM | 11700 nM | 4.83 µM | 1050 nM
6 | C[C@]1(O)CCN(c2ccc(C(F)(F)F)cc2NC(=O)c2ccc(-c3ccncc3)o2)C1 [Example 53, (S)-N-(2-(3-hydroxy-3-methylpyrrolidin-1-yl)-5-(trifluoromethyl)phenyl)-5-(pyridin-4-yl)furan-2-carboxamide] | 450 nM | 169 nM | 1190 nM | 2810 nM | 0.01 µM | 1330 nM
7 | O=C(Nc1cc(C(F)(F)F)ccc1N1CCC(O)C1)c1ccc(-c2ccncc2)o1 (racemic) [Example 56, N-(2-(3-hydroxypyrrolidin-1-yl)-5-(trifluoromethyl)-phenyl)-5-(pyridin-4-yl)furan-2-carboxamide] | 140 nM | 101 nM | 130 nM | 960 nM | 0.04 µM | 2420 nM
8 | CC1(O)CCN(c2ccc(C(F)(F)F)cc2NC(=O)c2ccc(C3CCOCC3)o2)C1 (racemic) [Example 54, N-(2-(3-hydroxy-3-methylpyrrolidin-1-yl)-5-(trifluoromethyl)-phenyl)-5-(tetrahydro-2H-pyran-4-yl)furan-2-carboxamide] | 6350 nM | 35 nM | 6140 nM | > 30000 nM | 7.14 µM | 20900 nM
9 | CN(C)C(=O)C1(C)CCN(c2ccc(Cl)cc2NC(=O)c2ccc(C3CCOCC3)o2)CC1 [Example 84, 1-(4-chloro-2-(5-(tetrahydro-2H-pyran-4-yl)furan-2-carboxamido)phenyl)-N,N,4-trimethyl-piperidine-4-carboxamide] | 600 nM | 23 nM | 8000 nM | > 30000 nM | 12.4 µM | 2200 nM
10 | CC1(O)CCN(c2ccc(C(F)(F)F)cc2NC(=O)c2ccccn2)CC1 [Example 1, N-(2-(4-hydroxy-4-methylpiperidin-1-yl)-5-(trifluoromethyl)phenyl)picolinamide] | 17800 nM | 9 nM | 16000 nM | 15300 nM | > 30 µM | 20900 nM
11 | CNCC1(C)CCN(c2ccc(C(F)(F)F)cc2NC(=O)c2ccc(-c3ccncc3)o2)CC1 [Example 79, N-(2-(4-methyl-4-((methylamino)-methyl)piperidin-1-yl)-5-(trifluoromethyl)phenyl)-5-(pyridin-4-yl)furan-2-carboxamide] | > 30000 nM | 263 nM | 17800 nM | > 30000 nM | 0.4 µM | 4500 nM
12 | CC1(O)CCN(c2ccc(C3CC3)cc2NC(=O)c2ccccn2)CC1 [Example 3, N-(5-cyclopropyl-2-(4-hydroxy-4-methylpiperidin-1-yl)phenyl)-picolinamide] | 12000 nM | 19 nM | 7160 nM | 14400 nM | > 30 µM | 17100 nM
13 | O=C(Nc1cc(C2CC2)ccc1N1CCC(O)(CC2CC2)CC1)c1ccc(C2CCOCC2)o1 [Example 71, N-(5-cyclopropyl-2-(4-(cyclopropylmethyl)-4-hydroxypiperidin-1-yl)phenyl)-5-(tetrahydro-2H-pyran-4-yl)furan-2-carboxamide] | 5420 nM | 2.9 nM | 2700 nM | > 30000 nM | 8.79 µM | 4190 nM
14 | CNCC1(C)CCN(c2ccc(C(F)(F)F)cc2NC(=O)c2ccc(C3CCOCC3)o2)CC1 [Example 82, N-(2-(4-methyl-4-((methylamino)methyl)-piperidin-1-yl)-5-(trifluoromethyl)phenyl)-5-(tetrahydro-2H-pyran-4-yl)furan-2-carboxamide] | > 30000 nM | 35 nM | 29200 nM | > 30000 nM | 2.8 µM | 6200 nM
15 | O=C(Nc1cc(C2CC2)ccc1N1CCC(O)CC1)c1ccc(C2CCOCC2)o1 [Example 61, N-(5-cyclopropyl-2-(4-hydroxypiperidin-1-yl)phenyl)-5-(tetrahydro-2H-pyran-4-yl)furan-2-carboxamide] | 7600 nM | 1.2 nM | 10600 nM | > 30000 nM | > 30 µM | > 30000 nM
16 | CN(C)CC1(C)CCN(c2ccc(C3CC3)cc2NC(=O)c2ccc(C3CCOCC3)o2)CC1 [Example 93, N-(5-cyclopropyl-2-(4-((dimethylamino)methyl)-4-methylpiperidin-1-yl)phenyl)-5-(tetrahydro-2H-pyran-4-yl)furan-2-carboxamide] | 13700 nM | 28 nM | 25700 nM | > 30000 nM | 24.3 µM | 29500 nM
17 | CC1(C)CCN(c2ccc(C(F)(F)F)cc2NC(=O)c2ccc(C3CCOCC3)o2)CC1 [Example 29, N-(2-(4,4-dimethylpiperidin-1-yl)-5-(trifluoromethyl)phenyl)-5-(tetrahydro-2H-pyran-4-yl)furan-2-carboxamide] | > 30000 nM | 6 nM | > 30000 nM | > 30000 nM | > 30 µM | > 30000 nM
18 | O=C(Nc1cc(C2CC2)ccc1N1CCCC(O)CC1)c1ccc(-c2ccncc2)o1 (racemic) [Example 46, N-(5-cyclopropyl-2-(4-hydroxyazepan-1-yl)phenyl)-5-(pyridin-4-yl)furan-2-carboxamide] | 1060 nM | 8.7 nM | 1180 nM | 6240 nM | 1.52 µM | 2130 nM
